Bridge positions count the residues as written; N and C are the ends. Ends that are not written are not given here. Peptide text beside a SMILES is read from it.
What was measured:
[1] = system: Spodoptera frugiperda Sf9 cells; test: Entomotoxicity (LC50) on cultured Sf9 cells, Celltiter-Blue viability test; type: cell-based; conditions: for toxicity / entomotoxic properties (in words): Sf9 cells, compared with reference PA1b
Protocol: The entomototoxic properties were determined by evaluation of the LC50 (50% lethal concentration) on cultures of Spodoptera frugiperda Sf9 cells, as described by Rahioui et al. (Biochimie, 89, 1539-43, 2007). The cells were cultured at 27° C. in medium from Lonza supplemented with 5% fetal calf serum (FCS) and 0.1% gentamicin, then seeded into 96-well plates, 24 h before the experiments (15,000 cells/wells) and exposed to increasing concentrations of synthetic peptide. After 24 h, the cell viability was determined using the Celltiter-Blue viability test (Promega), in accordance with the manufacturer's instructions. After the addition of the dye, the cells were incubated at 27° C. for 4 h. The absorbance was then measured at 570 and 600 nm using a microplate reader (MR 7000, Dynatech Laboratories Inc., USA).

PA1b-binding site = test: Affinity for the PA1b-binding site, ligand binding assay with 125I-labeled toxin; conditions: ligand binding with toxin labeled with iodine 125I; dash = no binding in the range of concentrations tested
Protocol: The affinity for the PA1b-binding site was determined by means of ligand binding assays using a toxin labeled with iodine ^125I, as previously described (Gressent et al., Eur J Biochem, 270, 2429-35, 2003).

Row | Compound | toxicity relative to PA1b ([1]; fold versus pea PA1b) | Ki (PA1b-binding site) [nM] | toxicity / entomotoxic properties (in words) [1]
1 | ASCPNVGAVCSPFETKPCGNVKDCRCLPWGLFFGTCINPTG (disulfide 3-24, 10-26, 18-36) [AG41] | close to ten times higher than that of PA1b | 1.3 ± 0.6 | –
2 | GQCARVGMRCSRALPNPCGDIVTCRCVHLHLVGSTCIDYTGDGL [GL44] | – | – | do not have entomotoxic properties
3 | CC[C@H](C)[C@@H]1NC(=O)[C@H](C(C)C)NC(=O)[C@H](CC(C)C)NC(=O)CNC(=O)[C@H](C(C)C)NC(=O)[C@@H]2CCCN2C(=O)[C@H]([C@@H](C)CC)NC(=O)[C@@H]2CSSC[C@@H]3NC(=O)[C@H](C(C)C)NC(=O)CNC(=O)[C@H](CC(N)=O)NC(=O)[C@@H](NC(=O)[C@H](CO)NC(=O)[C@H](C)N)CSSC[C@H](NC(=O)[C@H](C)NC(=O)[C@H](CO)NC(=O)[C@H]([C@@H](C)O)NC(=O)CNC(=O)[C@H](CSSC[C@@H](C(=O)N[C@@H](CCCNC(=N)N)C(=O)N[C@@H](CC(N)=O)C(=O)N4CCC[C@H]4C(=O)N[C@@H](CO)C(=O)NCC(=O)O)NC(=O)[C@H](Cc4ccc(O)cc4)NC(=O)CNC1=O)NC(=O)[C@@H]1CCCN1C(=O)[C@@H]1CCCN1C(=O)[C@H](CCSC)NC(=O)[C@H](CCC(=O)O)NC(=O)[C@H](Cc1ccccc1)NC(=O)[C@@H]1CCCN1C(=O)[C@H](CO)NC3=O)C(=O)N[C@@H](CCCNC(=N)N)C(=O)N2 [PA1b, reference compound] (H-ASCNGVCSPFEMPPCGTSACRCIPVGLVIGYCRNPSG-OH; disulfide 3-20, 7-22, 15-32 (inferred); N-terminus and C-terminus assumed) | – | 17 ± 1.1 | –
4 | EFCSSVGSFCSPFNTNPCGYLGNCRCVPYYLYGGTCENPFG (disulfide 3-24, 10-26, 18-36 (inferred)) [EG41] | – | 72.8 ± 2.7 | toxicity comparable to that of the reference PA1b peptide
5 | QSCIGFCSVFDSKPLCGSSRCRCNKPLNNPFVGICERRPST [QT41] | – | – | do not have entomotoxic properties
6 | DECWGPCSVLQTPPCPLSKCYCIPLFLVVGYCSHASS [DS37] | – | 694 ± 2 | do not have entomotoxic properties
7 | CC[C@H](C)[C@@H]1NC(=O)[C@H](Cc2ccccc2)NC(=O)[C@@H]2CSSC[C@@H]3NC(=O)[C@H](C)NC(=O)[C@H](CCC(=O)O)NC(=O)CNC(=O)[C@@H](NC(=O)[C@H](CCCCN)NC(=O)[C@H](C)N)CSSC[C@H](NC(=O)CNC(=O)[C@H](CC(=O)O)NC(=O)CNC(=O)[C@H](C)NC(=O)[C@H](CC(N)=O)NC(=O)[C@H](CSSC[C@@H](C(=O)N[C@@H](C)C(=O)N[C@@H](CCC(N)=O)C(=O)N[C@@H](CC(C)C)C(=O)N[C@@H](CO)C(=O)N[C@H](C(=O)O)[C@@H](C)O)NC(=O)[C@H](Cc4ccccc4)NC(=O)CNC(=O)[C@@H]4CCCN4C(=O)[C@H](CC(C)C)NC(=O)[C@H]([C@@H](C)O)NC(=O)[C@H](CC(C)C)NC(=O)[C@H](Cc4ccc(O)cc4)NC(=O)[C@H](C)NC(=O)[C@H](CC(=O)O)NC(=O)[C@H]([C@@H](C)O)NC1=O)NC(=O)[C@H](Cc1ccccc1)NC(=O)[C@H](CC(N)=O)NC(=O)[C@H](Cc1ccccc1)NC(=O)[C@H](CCC(N)=O)NC(=O)[C@H]([C@@H](C)O)NC(=O)[C@H](CC(=O)O)NC3=O)C(=O)N[C@@H](CCCNC(=N)N)C(=O)N2 [AS40] (H-AKCGEACDTQFNFCNAGDGCRCFITDAYLTLPGFCAQLST-OH; disulfide 3-20, 7-22, 14-35 (inferred); N-terminus and C-terminus assumed) | – | 10.3 ± 2 | toxicity comparable to that of the reference PA1b peptide
8 | CC[C@H](C)[C@@H]1NC(=O)CNC(=O)[C@H](CO)NC(=O)[C@@H](NC(=O)[C@H](CC(=O)O)NC(=O)[C@H](C)N)CSSC[C@@H]2NC(=O)[C@H](CC(=O)O)NC(=O)[C@H](CO)NC(=O)[C@H](CO)NC(=O)[C@H](CCCNC(=N)N)NC(=O)[C@@H]3CSSC[C@@H](C(=O)N[C@H](C(=O)N[C@@H](CC(N)=O)C(=O)N4CCC[C@H]4C(=O)N[C@H](C(=O)N[C@@H](CO)C(=O)O)[C@@H](C)CC)[C@@H](C)CC)NC(=O)[C@H](Cc4ccccc4)NC(=O)CNC(=O)CNC(=O)[C@H]([C@@H](C)CC)NC(=O)[C@H](CC(C)C)NC(=O)[C@H](C)NC(=O)[C@H]([C@@H](C)CC)NC(=O)[C@@H]4CCCN4C(=O)[C@H]([C@@H](C)CC)NC(=O)[C@H](CSSC[C@H](NC1=O)C(=O)N[C@@H](CO)C(=O)N1CCC[C@H]1C(=O)N[C@@H](Cc1ccccc1)C(=O)N[C@@H](CCC(=O)O)C(=O)N[C@@H](CCSC)C(=O)N1CCC[C@H]1C(=O)N1CCC[C@H]1C(=O)N3)NC(=O)[C@H](CCCNC(=N)N)NC2=O [AS37] (H-ADCSGICSPFEMPPCRSSDCRCIPIALIGGFCINPIS-OH; disulfide 3-20, 7-22, 15-32 (inferred); N-terminus and C-terminus assumed) | – | 15 ± 2 | toxicity comparable to that of the reference PA1b peptide

— US9994623B2, “Entomotoxic polypeptides” (INSTITUT NATIONAL DE LA RECHERCHE AGRONOMIQUE, priority 2013, dated 2018)
